Article PMC7402352, “Discovery of Novel Non-Steroidal Cytochrome P450 17A1 Inhibitors as Potential Prostate Cancer Agents” (International Journal of Molecular Sciences, 2020)
Values joined by “and” are separate entries in the source; they are usually repeats but may differ in a detail not shown here. Equal values may be shown once. “Also recorded” adds a separate entry of the source. Read-outs that look alike come from different tables or passages of the source. Values belong to the compound of their own block, whether it stands above or below them.

Experiments:
human CYP17A1 [1] = molecular target: T1, human CYP17A1 (Homo sapiens, UniProt P05093); parameters: method as in PMID 28373265; conditions: ref [11]; cited from earlier work
T1 construct: made in house
T1 sequence (P05093 24-508 limits assumed): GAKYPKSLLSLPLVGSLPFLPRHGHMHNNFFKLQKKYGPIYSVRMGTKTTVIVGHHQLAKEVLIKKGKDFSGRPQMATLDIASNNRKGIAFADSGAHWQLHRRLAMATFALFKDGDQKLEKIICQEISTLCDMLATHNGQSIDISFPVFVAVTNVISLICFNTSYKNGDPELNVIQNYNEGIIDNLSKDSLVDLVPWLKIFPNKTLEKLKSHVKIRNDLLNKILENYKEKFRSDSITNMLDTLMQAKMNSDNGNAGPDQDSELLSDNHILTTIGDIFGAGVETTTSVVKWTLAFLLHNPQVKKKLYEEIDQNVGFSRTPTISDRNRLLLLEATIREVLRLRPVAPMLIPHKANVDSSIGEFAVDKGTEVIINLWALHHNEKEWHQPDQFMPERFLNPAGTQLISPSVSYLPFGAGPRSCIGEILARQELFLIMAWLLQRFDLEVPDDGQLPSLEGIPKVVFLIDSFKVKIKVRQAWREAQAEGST

PC3 cells = test: Prostate cancer cell line proliferation screening (GR), PC3; type: cell-based, human; conditions: 10 µM, 48 h
Procedure: Next, we tested the effect of compounds 1a–1e on prostate cancer derived cell lines. The anti-proliferative activity was determined in vitro by adding 10 µM compound to each of three prostate cancer cell lines (LNCaP, DU145, and PC3). As an additional comparison, immortalized non-cancerous fibroblasts (BJ hTERT) were used. These cancer cell lines are considered the classic standard of PCa cell culture. Since these cell lines grew at very different rates, inhibition of growth rate (GR) was used as a metric. All compounds except 1e were non-toxic to non-cancerous cells. Compounds 1a and 1c were both cytotoxic in the PC3 cell line (Figure 3). […] DU145 cells were weakly affected by only compound 1e with growth rate inhibition more than 50% (GR < 0.5). […] We observed substantial susceptibility of PC3 cells in comparison to DU145 (see Supplementary Materials S3 for GR50 in PC3 cells). These two cell lines are similar in many respects. […] However, they differ in their origins, PC3 being derived from a lumbar vertebral metastatic prostate tumour and DU145 from a brain metastatic prostate tumour. […] By observing a uniform response of all cell lines used in the present study to 5-fluorouracil (5-FU), we were able to rule out any general cell dependent variability in chemosensitivity towards anti-metabolite treatment. Still, chemoresistance in PC3 and DU145 may be mediated by other mechanisms. While AR also functions as a tumour suppressor inhibiting cell proliferation, it is possible in AR deprived cells to observe growth inhibition when cells retain necessary coregulators. […]
(§1) Cells were grown to approximately 80% confluence in 150 mm culture dishes and harvested by 0.25% Trypsin/EDTA (Gibco) treatment. Released cells were counted and seeded in 384 well plates (Falcon, ref. 353962) in 30 µl media with a cell count of 1500 (BJ cells, PC-3) or and 3500 (LNCaP (Lund)) cells per well. […] The cells incubated for 24 h, after which cell counts in wells of one 384-well plate were determined as described below (time zero). […]

[2] = molecular target: T2, human cytochrome P450 17A1 (Homo sapiens, UniProt P05093); conditions: ref [10]; read-out: CYP17A1 Kd; cited from earlier work
T2 construct: made in house
T2 sequence (P05093 1-508): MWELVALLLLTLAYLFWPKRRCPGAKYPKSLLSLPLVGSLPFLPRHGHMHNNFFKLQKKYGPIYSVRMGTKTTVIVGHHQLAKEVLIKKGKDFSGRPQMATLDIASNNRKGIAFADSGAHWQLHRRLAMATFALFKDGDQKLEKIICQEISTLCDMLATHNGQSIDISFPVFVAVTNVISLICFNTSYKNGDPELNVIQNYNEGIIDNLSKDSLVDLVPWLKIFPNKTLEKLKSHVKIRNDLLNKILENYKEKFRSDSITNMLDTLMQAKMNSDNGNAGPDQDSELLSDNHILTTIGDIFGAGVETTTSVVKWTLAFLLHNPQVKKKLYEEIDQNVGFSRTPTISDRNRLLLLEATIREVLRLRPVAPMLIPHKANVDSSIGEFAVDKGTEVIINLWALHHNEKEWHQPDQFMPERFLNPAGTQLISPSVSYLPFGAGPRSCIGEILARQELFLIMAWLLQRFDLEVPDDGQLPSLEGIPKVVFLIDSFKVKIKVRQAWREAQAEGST

human CYP17A1 [3] = molecular target: T1, human CYP17A1; test: Cytochrome P450 17A1 progesterone 17α-hydroxylation inhibition assay; type: biochemical; conditions: recombinant purified CYP17A1
Procedure: Regardless of their binding affinity, all compounds were tested for their ability to inhibit progesterone 17α-hydroxylation by recombinant purified CYP17A1 (Supplementary Materials S2).
Purified recombinant human CYP17A1 (20 pmol) and human full-length cytochrome P450 reductase (80 pmol) were used to convert progesterone (purchased from Acros Organics, Fair Lawn, NJ, USA) (6 µM) to 17α-hydroxyprogesterone. Test inhibitors were dissolved in DMSO and initially tested in concentrations ranging from 1.3 to 41 µM. In subsequent assays the range of inhibitor concentrations was optimized to best define the IC50 of individual compounds. Reactions were run and the 17α -hydroxyprogesterone product measured by LC-MS as previously published.
IC50 curves for compounds inhibiting CYP17A1 progesterone 17-hydroxylation (black circles),
CYP21A2 progesterone 21-hydroxylation (red diamonds), CYP3A4 nifedipine metabolism
(green squares), and CYP2D6 quinidine metabolism (blue triangles).
(§2) (1 picture or pasted object on this page, not shown here)

[4] = molecular target: T2, human cytochrome P450 17A1; test: Spectral binding assay (CYP17A1 ligand binding); conditions: purified recombinant human CYP17A1, spectral titration
Description: The target compounds were initially tested for binding mode and affinity for CYP17A1 using a spectral binding assay. This assay can distinguish the mode of interaction, with a blue shift of the Soret absorbance occurring when ligand displaces water from the heme iron to generate a five-coordinate iron without direct coordination to the heme iron (type I, similar to most substrates) or a red shift of the Soret peak when the ligand nitrogen replaces the water to directly interact with the six-coordinate iron (type II, similar to many inhibitors). […] This 3-pyridyl fragment is also found in abiraterone.
Initial ligand binding was evaluated by measuring absorbance changes in CYP17A1 upon addition of ligands. Purified recombinant human cytochrome P450 17A1 enzyme (1 µM) in buffer (25 mM potassium phosphate, pH 7.4, 200 mM NaCl, 20% glycerol) was titrated with ligands. Ligands were dissolved in DMSO and added to three concentrations (500, 1000, and 2000 nM). The spectral intensity difference (ΔA) was measured as difference between […]. The Amin was typically at ~410 nm and Amax at ~440 nm for the type II changes observed for these ligands.
S2. Binding spectra and CYP IC50 curves
Difference spectrum of cytochrome P450 17A1 with vs. without compound 1a (2 µM).
All compounds are type II and display the same shift as the example above.
as §2

CYP2D6 = molecular target: T3, CYP2D6 (Homo sapiens, UniProt P10635); test: CYP2D6 dextromethorphan metabolism inhibition assay; type: biochemical; conditions: for IC50: dextromethorphan metabolism
T3 construct: made in house
T3 sequence (P10635 whole entry): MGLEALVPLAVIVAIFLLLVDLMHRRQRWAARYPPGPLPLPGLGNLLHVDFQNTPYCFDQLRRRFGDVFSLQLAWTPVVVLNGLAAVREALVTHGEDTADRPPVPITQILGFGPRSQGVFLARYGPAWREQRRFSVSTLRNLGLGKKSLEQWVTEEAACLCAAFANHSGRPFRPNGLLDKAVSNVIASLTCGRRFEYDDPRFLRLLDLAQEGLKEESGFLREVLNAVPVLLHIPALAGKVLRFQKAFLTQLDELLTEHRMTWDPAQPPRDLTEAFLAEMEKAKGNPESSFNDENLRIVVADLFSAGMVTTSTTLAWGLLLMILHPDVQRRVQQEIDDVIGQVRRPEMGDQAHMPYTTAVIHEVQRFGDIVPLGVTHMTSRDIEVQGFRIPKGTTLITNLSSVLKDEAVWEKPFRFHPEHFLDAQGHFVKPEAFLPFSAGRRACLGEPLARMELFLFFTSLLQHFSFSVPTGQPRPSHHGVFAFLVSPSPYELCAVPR
Description: (§3) In human drug metabolism, CYP3A4 and CYP2D6 are dominant enzymes and undesired inhibition could potentially alter the pharmacokinetics and reduce the clearance of co-administered drugs. CYP3A4 is particularly important in this respect, with a large and flexible active site able to accommodate many different molecular scaffolds including steroids. […] The most similar steroidogenic human enzyme to CYP17A1 is CYP21A2, which also uses progesterone as a substrate, in this case to form 21-hydroxyprogesterone. Undesired inhibition of this enzyme could adversely impact the biosynthesis of the corticosteroids cortisol and aldosterone which control stress/immune responses and blood pressure, respectively. Abiraterone itself has this liability and is thus co-administered with the synthetic corticosteroid prednisone. […] However, at the same time it might be possible to achieve similar results by altering the nitrogen atom position in the pyridine fragment in compound 1e. Further optimization of 1c is required to eliminate off-target effects on the steroidogenic human CYP21A2 enzyme to prevent disruption of glucocorticoid and mineralocorticoid biosynthesis in vivo. This might be achieved by adding substituents compatible with the CYP17A1 active site topography forming interactions with the bordering Arg239 and/or Asp298 residues, but incompatible with the more spatially constrained CYP21A2 active site, as has been accomplished for abiraterone.
(§4) Selected inhibitors were tested for off-target inhibition of purified recombinant human CYP3A4 nifedipine metabolism and CYP2D6 dextromethorphan metabolism as described with minor modifications. CYP3A4 nifedipine (purchased from Sigma-Aldrich, St. Louis, MO, USA) activity assays were carried out with 200 µM nifedipine for 30 min. The CYP2D6 dextrometorphan (purchased from Sigma-Aldrich, St. Louis, MO, USA) assays were carried out with 100 µM DXM. Inhibition of steroidogenic cytochrome P450 21A2 progesterone 21-hydroxylation was evaluated as reported.
(§5) IC50 curves for compounds inhibiting CYP17A1 progesterone 17-hydroxylation (black circles), […]

cytochrome P450 21A2 = molecular target: T4, cytochrome P450 21A2 (Homo sapiens, UniProt P08686); test: CYP21A2 progesterone 21-hydroxylation inhibition assay; type: biochemical; conditions: for IC50: progesterone 21-hydroxylation
T4 construct: made in house
T4 sequence (P08686 1-495): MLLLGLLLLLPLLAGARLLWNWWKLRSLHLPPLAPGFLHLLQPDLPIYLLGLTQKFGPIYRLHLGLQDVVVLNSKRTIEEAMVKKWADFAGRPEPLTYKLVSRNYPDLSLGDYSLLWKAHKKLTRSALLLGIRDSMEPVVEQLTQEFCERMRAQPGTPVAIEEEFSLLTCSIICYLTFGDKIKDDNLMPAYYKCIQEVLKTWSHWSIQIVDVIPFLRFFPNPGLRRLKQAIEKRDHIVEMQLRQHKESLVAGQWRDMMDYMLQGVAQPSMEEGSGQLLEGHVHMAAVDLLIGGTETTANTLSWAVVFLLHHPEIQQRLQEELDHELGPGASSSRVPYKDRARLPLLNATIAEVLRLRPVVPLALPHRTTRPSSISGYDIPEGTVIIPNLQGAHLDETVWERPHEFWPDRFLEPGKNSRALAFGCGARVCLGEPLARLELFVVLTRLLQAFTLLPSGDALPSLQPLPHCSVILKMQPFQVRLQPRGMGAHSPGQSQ
Description: as §3, §4, §5

BJ hTERT fibroblasts = test: Proliferation screening in non-cancerous fibroblasts; type: cell-based; conditions: 10 µM, 48 h
Procedure: (§6) Next, we tested the effect of compounds 1a–1e on prostate cancer derived cell lines. The anti-proliferative activity was determined in vitro by adding 10 µM compound to each of three prostate cancer cell lines (LNCaP, DU145, and PC3). As an additional comparison, immortalized non-cancerous fibroblasts (BJ hTERT) were used. These cancer cell lines are considered the classic standard of PCa cell culture. Since these cell lines grew at very different rates, inhibition of growth rate (GR) was used as a metric. All compounds except 1e were non-toxic to non-cancerous cells. Compounds 1a and 1c were both cytotoxic in the PC3 cell line (Figure 3). […] DU145 cells were weakly affected by only compound 1e with growth rate inhibition more than 50% (GR < 0.5). […] We observed substantial susceptibility of PC3 cells in comparison to DU145 (see Supplementary Materials S3 for GR50 in PC3 cells). These two cell lines are similar in many respects. […]
as §1

human CYP3A4 = molecular target: T5, human CYP3A4 (Homo sapiens, UniProt P08684); test: CYP3A4 nifedipine metabolism inhibition assay; type: biochemical; conditions: concentrations up to 10 µM
T5 construct: made in house
T5 sequence (P08684 whole entry): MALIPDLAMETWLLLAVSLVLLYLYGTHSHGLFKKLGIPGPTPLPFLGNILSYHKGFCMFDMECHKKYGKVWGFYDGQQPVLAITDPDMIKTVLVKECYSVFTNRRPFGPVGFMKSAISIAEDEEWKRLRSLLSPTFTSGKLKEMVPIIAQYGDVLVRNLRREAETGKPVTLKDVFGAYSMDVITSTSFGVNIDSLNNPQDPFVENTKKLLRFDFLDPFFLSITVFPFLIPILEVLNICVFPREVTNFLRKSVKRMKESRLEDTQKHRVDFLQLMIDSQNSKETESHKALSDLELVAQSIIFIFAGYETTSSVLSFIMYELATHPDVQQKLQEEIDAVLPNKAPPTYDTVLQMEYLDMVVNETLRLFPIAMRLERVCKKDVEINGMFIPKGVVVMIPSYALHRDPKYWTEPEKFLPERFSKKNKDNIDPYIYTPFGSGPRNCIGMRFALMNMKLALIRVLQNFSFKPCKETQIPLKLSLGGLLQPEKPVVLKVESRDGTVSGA
Description: as §3, with “Further optimization of 1c is required to eliminate off-target effects on the steroidogenic human CYP21A2 enzyme to prevent disruption of glucocorticoid and mineralocorticoid biosynthesis in vivo. This might be achieved by adding substituents compatible with the CYP17A1 active site topography forming interactions with the bordering Arg239 and/or Asp298 residues, but incompatible with the more spatially constrained CYP21A2 active site, as has been accomplished for abiraterone.” left out
Selected inhibitors were tested for off-target inhibition of purified recombinant human CYP3A4 nifedipine metabolism and CYP2D6 dextromethorphan metabolism as described with minor modifications. […] Inhibition of steroidogenic cytochrome P450 21A2 progesterone 21-hydroxylation was evaluated as reported. […]

DU145 cells = test: Prostate cancer cell line proliferation screening (GR), DU145; type: cell-based, human
Procedure: as §6, §1

Compound: C[C@]12CC[C@H](O)CC1=CC[C@@H]1[C@@H]2CC[C@]2(C)C(c3cccnc3)=CC[C@@H]12 [Abiraterone]
IC50 (human CYP17A1 [1]): 80 nM
Antiproliferative response in PC3 cells (growth rate inhibition, in words) (PC3 cells): low antiproliferative activity
Kd [2]: < 100 nM

IC50 (human CYP17A1 [3]): 8000 nM and 8060 nM
Kd [4]: 290 ± 55 nM
Compound: c1ccc2c(c1)ncn2-c1ccc(Nc2ccncc2)cc1 [Compound 1a]
Antiproliferative response in PC3 cells (growth rate inhibition, in words) (PC3 cells): cytotoxic

IC50 (human CYP17A1 [3]): > 10000 nM
Kd [4]: 420 ± 70 nM
Compound: c1ccc(Nc2ccc(-n3cnc4ccccc43)cc2)nc1 [Compound 1b]

Compound: c1cncc(Nc2ccc(-n3cnc4ccccc43)cc2)c1 [Compound 1c]
Antiproliferative response in PC3 cells (growth rate inhibition, in words) (PC3 cells): cytotoxic; also recorded: high cytotoxicity
IC50 (human CYP17A1 [3]): 830 ± 190 nM
IC50 (CYP2D6): > 10000 nM
Kd [4]: 96 ± 22 nM
IC50 (cytochrome P450 21A2): 1500 ± 670 nM
Selectivity for CYP17A1 over CYP21A2 inhibition (cytochrome P450 21A2; ratio of IC50 values): two-fold
Toxicity to non-cancerous cells (BJ hTERT fibroblasts) (BJ hTERT fibroblasts): non-toxicity
IC50 (human CYP3A4): > 10000 nM

IC50 (human CYP17A1 [3]): 1760 ± 190 nM
Kd [4]: 150 ± 37 nM
Compound: c1ccc(Nc2ccc(-n3cnc4ccccc43)cc2)cc1 [Compound 1d]

IC50 (human CYP17A1 [3]): 560 ± 100 nM
IC50 (CYP2D6): 2500 ± 600 nM
Fold weaker inhibition of CYP2D6 than of CYP17A1 (CYP2D6; ratio of IC50 values): 4.5 fold
Kd [4]: 120 ± 34 nM
IC50 (cytochrome P450 21A2): 190 ± 30 nM
IC50 (human CYP3A4): > 10000 nM
Compound: c1ccc2c(c1)ccn2-c1ccc(Nc2ccncc2)cc1 [Compound 1e]
Growth rate inhibition value (GR) in DU145 cells (DU145 cells; 10 µM, 48 h): < 0.5
inhibition at 10 µM (DU145 cells; Homo sapiens, DU-145, 48 h, read-out: Growth rate inhibition in DU145 cells): > 50%

Compound: C[C@]12CC[C@H](O)CC1=CC[C@@H]1[C@@H]2CC[C@]2(C)C(n3cnc4ccccc43)=CC[C@@H]12 [Galeterone]
IC50 (human CYP17A1 [1]): 130 nM
Kd [2]: < 100 nM
